Measured values taken from patent US20040106678A1, “Compositions for the parenteral administration of calcium and magnesium” (priority 2002, published 2004).

Experiments:
[1] = parenteral administration; cited from earlier work
[2] = saturated aqueous solution at 20° C.; cited from earlier work
[3] = toxicity / tolerability on parenteral use; conditions: anion is a naturally occurring mammalian metabolite
pH of aqueous solution = assay type: physicochemical
[4] = stability of the powder / shelf life; assay type: physicochemical

In the case of `[Ca+2].[Cl-].[Cl-]` [Calcium chloride], the “venous toxicity” value [1] is given as “appreciably toxic to veins”.
For “D-gluconic acid calcium salt [Calcium gluconate]”, the “pH of saturated solution” value [2] is listed as 6-7.
For “calcium 3-hydroxy-3-methylbutyrate [CaHMB]”, the “toxicity” value [3] was “non-toxic”, the “pH of saturated aqueous solution” value (pH of aqueous solution; 27% by weight saturated aqueous solution at 20° C.) was “neutral or slightly alkaline” and the “pH of aqueous solution in distilled water” value (pH of aqueous solution; if pure, dissolved in distilled water) was “nearly neutral or slightly alkaline”. For the same molecule, the “powder stability / shelf life” value [4] was “stable powders with long shelf lives”.
